Source: US6720341B2, “Preventives/remedies for kidney diseases” (Mitsubishi Pharma Corporation, priority 2000, dated 2004)

System: renal interstitial fibrosis model mice
Assay: Action in renal interstitial fibrosis model mice due to unilateral ureteral ligation
Type: in vivo
Procedure: Unilateral ureteral ligation mice were prepared according to the reported method (Kidney Int. 54, 110-119, (1998)). Male BL6/C3H F1 mice (6-week-old, body weight 25 g-30 g) were anesthetized with pentobarbital and subjected to median incision. Thereafter, left ureter was detached and ligated at two points with silk thread. Two models were prepared, and 10 mg/kg of Y-27632 was orally administered (administration with drinking water) to one group for consecutive days from 2 days prior to the operation. Ten days postoperation, the kidney on the ureter ligation side was removed, fixed with 4% paraformaldehyde and prepared into specimen, for staining, which were subjected to Masson trichrome staining. The level of renal interstitial fibrosis was calculated by image analysis of the area ratio (interstitium cortex area ratio:%) of the portion stained blue (fibrosis) relative to the entire sight. (Results)

Compound: C[C@@H](N)[C@H]1CC[C@H](C(=O)Nc2ccncc2)CC1 [Compound Y-27632, (+)-trans-4-(1-aminoethyl)-1-(4-pyridylcarbamoyl)cyclohexane 2HCl.1H2O]
- level of renal interstitial fibrosis (10 mg/kg orally, against non-administration group, p < 0.01 (t-test)): significantly suppressed
- portion stained blue (fibrosis) in Masson trichrome stained kidney specimen (FIG. 1B, Y-27632 administration group, 10 mg/kg orally, ten days postoperation): scarcely detected
- Area ratio of interstitium cortex (Fibrosis): % (average value ± SD) (unilateral ureteral ligation mice, 10 mg/kg orally (with drinking water) from 2 days prior to operation, kidney removed ten days postoperation, Masson trichrome staining, image analysis, n = 4): 7.31 ± 3.11 %
